Data set [1] in a line: Acute toxicity in male C57BL/6J mouse assessed as structural changes in spleen at 2 g/Kg, IG measured after 72 hrs by H and E staining based analysis. The data set is classed as tissue-based. Particulars: in vivo, po, 2000 mg/kg.
For data set [2], the system named is HT-29. Nature of the data set: Downregulation of MLKL protein level in human HT-29 cells at 6 uM preincubated with MLN4924 for 2 hrs followed by compound addition and measured after 9 hrs by Western blot analysis. The data set is classed as functional, cell-based.
Data set [3] concerns HT-29. The experiment in a line: Downregulation of MLKL protein level in human HT-29 cell supernatant at 6 uM measured after 9 hrs by Western blot analysis. The data set is classed as functional, cell-based. (In western blotting, separated proteins are transferred to a membrane and probed.)
In data set [4] the test system is L929. The experiment in a line: Anti-necroptotic activity in TZ-induced mouse L929 cells assessed as rounded shape cell morphology at 10 uM measured after 12 hrs by Live-cell super-resolution panoramic microscopic analysis. The data set is classed as functional, cell-based.
Data set [5] in a line: Acute toxicity in male C57BL/6J mouse assessed as effect on ALT level at 2 g/Kg, IG measured after 72 hrs. Particulars: in vivo, po, 2000 mg/kg.
Data set [6] can be described thus: Acute toxicity in male C57BL/6J mouse assessed as survival at 2 g/Kg, po measured within 72 hrs relative to control. The data set is classed as organism-based. The conditions noted are these: in vivo, 2000 mg/kg.
Data set [7] is described as follows: Acute toxicity in male C57BL/6J mouse assessed as hemorrhage in spleen at 2 g/Kg, IG measured after 72 hrs by H and E staining based analysis. The data set is classed as tissue-based. Particulars: in vivo, po, 2000 mg/kg.
Data set [8] can be described thus: Tmax in Sprague-Dawley rat at 10 mg/kg, IG measured after 24 hrs by LC-MS/MS analysis. The data set is classed as ADME, organism-based. The conditions noted are these: in vivo, po.
The nature of data set [9]: Acute toxicity in male C57BL/6J mouse assessed as inflammatory cell infiltration in heart at 2 g/Kg, IG measured after 72 hrs by H and E staining based analysis. The data set is classed as tissue-based. The conditions noted are these: in vivo, po, 2000 mg/kg.
In data set [10] the test system is Mus musculus. The experiment in a line: Anti-necroptotic activity in TNFalpha/Z-VAD-FMK induced SIRS male C57BL/6J mouse model assessed as reduction in IL6 in kidney at 5 to 10 mg/kg, po pre-administered with compound via gavage for 2 hrs followed by […] of Z-VAD-FMK stimulation for 15 mins with subsequent TNF-alpha stimulation for 1 hrs and re-current […] of Z-VAD-FMK stimulation and measured after 8 hrs post SIRS induction by ELISA. The conditions noted are these: dose 5-10 mg/kg, time 10.0 hrs. The data set is classed as functional, organism-based. A general note: ELISA stands for enzyme-linked immunosorbent assay.

Data set [11] is described as follows: AUC (0 to 24 hrs) in Sprague-Dawley rat at 10 mg/kg, IG measured after 24 hrs by LC-MS/MS analysis. The data set is classed as ADME, organism-based. The conditions noted are these: in vivo, po.
Data set [12] is described as follows: Acute toxicity in male C57BL/6J mouse assessed as hemorrhage in brain at 2 g/Kg, IG measured after 72 hrs by H and E staining based analysis. The data set is classed as tissue-based. Particulars: in vivo, po, 2000 mg/kg.
Data set [13] is described as follows: Acute toxicity in male C57BL/6J mouse assessed as inflammatory cell infiltration in stomach at 2 g/Kg, IG measured after 72 hrs by H and E staining based analysis. The data set is classed as tissue-based. Particulars: in vivo, po, 2000 mg/kg.
Data set [14] has as its system HT-29. The experiment in a line: Anti-necroptotic activity in TSZ-induced human HT-29 cells assessed as increase in cell viability at 2.5 uM preincubated with compound followed by Z-VAD-FMK, SM164 and TNFalpha addition and measured after 12 hrs by CellTiter-Lumi luminescent cell viability assay relative to control. The data set is classed as functional.
Data set [15] relates to HT-29. Nature of the data set: Anti-necroptotic activity in TCZ-induced human HT-29 cells assessed as increase in cell viability at 1.25 uM preincubated with compound followed by Z-VAD-FMK, cycloheximide and TNFalpha addition and measured after 16 hrs by CellTiter-Lumi luminescent cell viability assay relative to control. The data set is classed as functional.
Data set [16] deals with T1, Receptor-interacting serine/threonine-protein kinase 1 (Homo sapiens) (UniProt Q13546).
T1 sequence (whole entry): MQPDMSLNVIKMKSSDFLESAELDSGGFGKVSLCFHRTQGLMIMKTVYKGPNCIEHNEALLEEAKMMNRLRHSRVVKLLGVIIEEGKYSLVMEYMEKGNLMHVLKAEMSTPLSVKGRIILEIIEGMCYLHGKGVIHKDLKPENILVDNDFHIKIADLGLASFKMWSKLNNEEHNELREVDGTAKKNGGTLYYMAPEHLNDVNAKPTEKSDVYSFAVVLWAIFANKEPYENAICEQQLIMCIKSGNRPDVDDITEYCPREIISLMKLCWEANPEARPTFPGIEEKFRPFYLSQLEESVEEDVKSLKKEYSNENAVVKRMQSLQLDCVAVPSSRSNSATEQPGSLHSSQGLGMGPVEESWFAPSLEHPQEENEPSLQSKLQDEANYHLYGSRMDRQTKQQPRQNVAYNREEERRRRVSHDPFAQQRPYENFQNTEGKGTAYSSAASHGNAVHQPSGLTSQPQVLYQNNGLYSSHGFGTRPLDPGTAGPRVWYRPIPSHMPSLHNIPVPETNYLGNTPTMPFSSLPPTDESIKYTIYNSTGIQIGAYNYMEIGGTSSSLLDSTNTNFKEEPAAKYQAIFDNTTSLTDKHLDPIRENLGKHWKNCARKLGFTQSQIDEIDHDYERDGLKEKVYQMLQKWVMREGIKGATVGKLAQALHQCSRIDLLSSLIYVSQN
Nature of the data set: Inhibition of RIPK1 phosphorylation in TSZ-induced human HT-29 cells at 10 uM preincubated with compound followed by Z-VAD-FMK, SM164 and TNFalpha stimulation and measured within 6 hrs by Western blot analysis relative to control. The data set is classed as cell-based.

Data set [17] can be described thus: AUC (0 to 24 hrs) in Sprague-Dawley rat at 2 mg/kg, iv measured after 24 hrs by LC-MS/MS analysis. The data set is classed as ADME, organism-based. Particulars: in vivo.
Data set [18] can be described thus: Acute toxicity in male C57BL/6J mouse assessed as inflammatory cell infiltration in liver at 2 g/Kg, IG measured after 72 hrs by H and E staining based analysis. The data set is classed as tissue-based. Particulars: in vivo, po, 2000 mg/kg.
Data set [19] has as its target Receptor-interacting serine/threonine-protein kinase 3 (Homo sapiens) (UniProt Q9Y572). Nature of the data set: Inhibition of RIPK3 phosphorylation at S227 residue in TSZ-induced human HT-29 cells at 10 uM preincubated with compound followed by Z-VAD-FMK, SM164 and TNFalpha stimulation and measured after 6 hrs by Western blot analysis. The data set is classed as cell-based.

The nature of data set [20]: Acute toxicity in male C57BL/6J mouse assessed as structural changes in kidney at 2 g/Kg, IG measured after 72 hrs by H and E staining based analysis. The data set is classed as tissue-based. Particulars: in vivo, po, 2000 mg/kg.
Data set [21] has as its system HT-29. The experiment in a line: Downregulation of RIPK3 protein level in human HT-29 cells at 6 uM preincubated with Z-VAD-FMK for 2 hrs followed by compound addition and measured after 9 hrs by Western blot analysis. The data set is classed as functional, cell-based.
Data set [22] concerns L929. The experiment in a line: Anti-necroptotic activity in TZ-induced mouse L929 cells assessed as increase in cell survival at 10 uM measured after 12 hrs by Live-cell super-resolution panoramic microscopic analysis. The data set is classed as functional, cell-based.
For data set [23], the system named is RAW264.7. The experiment in a line: Anti-necroptotic activity in LZ-induced mouse RAW264.7 cells assessed as increase in cell viability at 5 to 10 uM preincubated with compound followed by LPS and Z-VAD-FMK stimulation and measured after 16 hrs by CellTiter-Lumi luminescent cell viability assay. The data set is classed as functional, cell-based. The conditions noted are these: dose 5-10 µM.

Data set [24] has as its system HT-29. Nature of the data set: Downregulation of RIPK3 protein level in human HT-29 cells at 6 uM preincubated with MG132 for 2 hrs followed by compound addition and measured after 9 hrs by Western blot analysis. The data set is classed as functional, cell-based.

The values that follow come from ChEMBL document CHEMBL6177981, “Bardoxolone Derivatives as Novel Pseudo-Natural Necroptosis Inhibitors by Destabilizing HSP90 Client Proteins” (J Med Chem, 2025).

SMILES strings stand for the structures. Calls of active or inactive are those of the source. No cut-off for these calls is given here.

In general, Tmax refers to the time at which the peak concentration occurs. One may read the AUC(0-t) as the area under the concentration-time curve up to a stated or last time point. In general, inhibition refers to the change of the read-out against control, counted positive when it falls.

Sequence of Receptor-interacting serine/threonine-protein kinase 3 (Homo sapiens) (Q9Y572 whole entry, looked up): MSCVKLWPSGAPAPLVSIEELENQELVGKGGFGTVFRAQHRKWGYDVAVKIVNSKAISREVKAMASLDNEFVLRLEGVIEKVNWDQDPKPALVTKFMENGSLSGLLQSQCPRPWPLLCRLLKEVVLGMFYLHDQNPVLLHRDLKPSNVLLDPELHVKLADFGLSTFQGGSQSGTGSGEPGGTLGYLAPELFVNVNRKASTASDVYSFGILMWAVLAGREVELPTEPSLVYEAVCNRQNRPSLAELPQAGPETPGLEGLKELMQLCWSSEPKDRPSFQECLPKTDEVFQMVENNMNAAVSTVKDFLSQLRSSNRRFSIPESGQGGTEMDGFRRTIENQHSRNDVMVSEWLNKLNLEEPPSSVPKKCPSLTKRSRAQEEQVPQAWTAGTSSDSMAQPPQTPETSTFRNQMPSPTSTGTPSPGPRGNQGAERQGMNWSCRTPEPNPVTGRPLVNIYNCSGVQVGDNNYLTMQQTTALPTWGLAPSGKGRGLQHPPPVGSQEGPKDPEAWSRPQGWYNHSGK

For `Cn1ccc(-c2ccc(NC(=O)[C@]34CCC(C)(C)C[C@H]3[C@H]3C(=O)C=C5[C@@]6(C)C=C(C#N)C(=O)C(C)(C)[C@@H]6CC[C@@]5(C)[C@]3(C)CC4)cc2)n1`, the Activity result in data set [1], in data set [5], in [7], in data set [9], in data set [12] and in data set [13] was “Non-toxic” in each case. Also, the Activity in data set [14] is reported as 100%; in [15] it was 100%; in data set [18] it was “Non-toxic”; in data set [20] it was “Non-toxic”; in data set [23], “Active; Much Better Activity Observed”. Moreover, the result in data set [2], in data set [3], in data set [4], in data set [10], in data set [21] and in data set [22] was Active. The result in data set [24] was Active. The survival at 72 h in data set [6] turned out to be 100%. Moreover, the Tmax in data set [8] was found to be 14 h. Moreover, the figures for the AUC(0-t) at 24 h in data set [11] and in data set [17] were 1080 ng·h/mL and 4640 ng·h/mL, respectively. Besides, the inhibition in data set [16] was determined as 100%. For the same compound, the inhibition entry in data set [19] was “Active”.
